Experimental data reported in publication PMC7693184 (Angewandte Chemie (International Ed. in English), 2020).

Target: T1, BtuR (ATP:Co(I)rrinoid adenosyltransferase) (Brucella melitensis, UniProt Q8YHV0)
T1 construct: gene BMEI0696
Conditions: excess cob(I)alamin as corrinoid substrate; inhibitor 5 μM; not a substrate itself

T1 sequence (Q8YHV0 1-189): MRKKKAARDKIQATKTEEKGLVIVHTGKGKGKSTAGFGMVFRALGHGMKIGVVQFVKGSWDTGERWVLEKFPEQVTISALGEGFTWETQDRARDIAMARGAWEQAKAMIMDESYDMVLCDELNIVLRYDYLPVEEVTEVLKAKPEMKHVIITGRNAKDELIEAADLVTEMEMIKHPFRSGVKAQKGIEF

nibalamin [Nibl]
% inhibition at 5 μM: 60%
